Test results reported in patent US12599136B2, “Substituted isophthalic acid diamides and their use as herbicides” (Bayer Aktiengesellschaft, priority 2020, dated 2026).

Key:
Format in all cases: in vivo
Abutilon theophrasti [1] = test: Pre-emergence herbicidal action against ABUTH; settings: visual score after 3 weeks vs untreated controls
Method in brief: (§1)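 Sandy loam pots, seeds covered with soil, then surface-treated with WP or EC formulations at 600–800 l/ha water plus 0.2% wetting agent. Greenhouse, 3 weeks. Percent damage vs untreated controls.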

Alopecurus myosuroides [2] = test: Pre-emergence herbicidal action against ALOMY; settings: visual score after 3 weeks vs untreated controls
Method in brief: as §1

Amaranthus retroflexus [3] = test: Pre-emergence herbicidal action against AMARE; settings: visual score after 3 weeks vs untreated controls
Method in brief: as §1

Avena fatua [4] = test: Pre-emergence herbicidal action against AVEFA; settings: visual score after 3 weeks vs untreated controls
Method in brief: as §1

Echinochloa crus-galli [5] = test: Pre-emergence herbicidal action against ECHCG; settings: visual score after 3 weeks vs untreated controls
Method in brief: as §1

Matricaria inodora [6] = test: Pre-emergence herbicidal action against MATIN; settings: visual score after 3 weeks vs untreated controls
Method in brief: as §1

Digitaria sanguinalis [7] = test: Pre-emergence herbicidal action against DIGSA
Method in brief: as §1

Setaria viridis [8] = test: Pre-emergence herbicidal action against SETVI
Method in brief: as §1

Veronica persica [9] = test: Pre-emergence herbicidal action against VERPE
Method in brief: as §1

Viola tricolor [10] = test: Pre-emergence herbicidal action against VIOTR
Method in brief: as §1

Abutilon theophrasti [11] = test: Post-emergence herbicidal action against ABUTH
Method in brief: (§2)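 Herbicidal action is a visual percentage rating (0% = as untreated control, 100% = plants dead) made roughly 3 weeks after treatment. Plants were grown in sandy loam in the greenhouse and treated at the one-leaf stage, 2 to 3 weeks post-sowing. Treatment was a foliar spray of wettable-powder or emulsion-concentrate formulations at 600 to 800 l/ha water plus 0.2% wetting agent.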

Alopecurus myosuroides [12] = test: Post-emergence herbicidal action against ALOMY
Method in brief: as §2

Amaranthus retroflexus [13] = test: Post-emergence herbicidal action against AMARE; settings: visual assessment about 3 weeks after treatment
Method in brief: as §2

Avena fatua [14] = test: Post-emergence herbicidal action against AVEFA; settings: visual assessment about 3 weeks after treatment
Method in brief: as §2

Echinochloa crus-galli [15] = test: Post-emergence herbicidal action against ECHCG; settings: visual assessment about 3 weeks after treatment
Method in brief: as §2

Matricaria inodora [16] = test: Post-emergence herbicidal action against MATIN; settings: visual assessment about 3 weeks after treatment
Method in brief: as §2

Digitaria sanguinalis [17] = test: Post-emergence herbicidal action against DIGSA
Method in brief: as §2

Polygonum convolvulus = test: Post-emergence herbicidal action against POLCO; settings: 20 g/ha, visual assessment about 3 weeks after treatment
Description: (§3) Seeds of monocotyledonous and dicotyledonous weed and crop plants are laid out in sandy loam soil in wood-fiber pots, covered with soil and cultivated in a greenhouse under good growth conditions. 2 to 3 weeks after sowing, the test plants are treated at the one-leaf stage. The compounds of the invention, formulated in the form of wettable powders (WP) or as emulsion concentrates (EC), are then sprayed onto the green parts of the plants in the form of an aqueous suspension or emulsion at a water application rate equivalent to 600 to 800 l/ha, with addition of 0.2% wetting agent. After the test plants have been left to stand in the greenhouse under optimal growth conditions for about 3 weeks, the action of the preparations is assessed visually in comparison to untreated controls (herbicidal action in percent (%): 100% activity=the plants have died, 0% activity=like control plants). […] The tables below illustrate, in an illustrative manner, the post-emergence herbicidal action of the compounds of the invention, the herbicidal activity being stated in percent.

Setaria viridis [18] = test: Post-emergence herbicidal action against SETVI; settings: visual assessment about 3 weeks after treatment
Method in brief: as §2

Veronica persica [19] = test: Post-emergence herbicidal action against VERPE; settings: 20 g/ha, visual assessment about 3 weeks after treatment
Method in brief: as §2

Viola tricolor [20] = test: Post-emergence herbicidal action against VIOTR
Method in brief: as §2

Cyperus esculentus = test: Pre-emergence herbicidal action against CYPES; settings: visual score after 3 weeks vs untreated controls
Method in brief: as §1

Pharbitis purpurea [21] = test: Pre-emergence herbicidal action against PHBPU; settings: 320 g/ha; visual score after 3 weeks vs untreated controls
Text: (§4) Seeds of monocotyledonous and dicotyledonous weed plants and crop plants are laid out in sandy loam soil in wood-fiber pots and covered with soil. The compounds of the invention, formulated in the form of wettable powders (WP) or as emulsion concentrates (EC), are then applied to the surface of the covering soil in the form of an aqueous suspension or emulsion at a water application rate equivalent to 600 to 800 l/ha, with addition of 0.2% wetting agent. After the treatment, the pots are placed in a greenhouse and kept under good growth conditions for the trial plants. The damage to the test plants is scored visually after a test period of 3 weeks by comparison with untreated controls (herbicidal activity in percent (%): 100% activity=the plants have died, 0% activity=like control plants). […] The tables below illustrate, in an illustrative manner, the post-emergence herbicidal action of the compounds of the invention, the herbicidal activity being stated in percent.

Hordeum murinum [22] = test: Pre-emergence herbicidal action against HORMU; settings: visual score after 3 weeks vs untreated controls
Text: as §4

Lolium rigidum = test: Pre-emergence herbicidal action against LOLRI; settings: 320 g/ha
Method in brief: as §1

Stellaria media [23] = test: Pre-emergence herbicidal action against STEME
Method in brief: as §1

Pharbitis purpurea [24] = test: Post-emergence herbicidal action against PHBPU; settings: visual assessment about 3 weeks after treatment
Method in brief: as §2

Hordeum murinum [25] = test: Post-emergence herbicidal action against HORMU
Description: as §3

Stellaria media [26] = test: Post-emergence herbicidal action against STEME; settings: visual assessment about 3 weeks after treatment
Method in brief: as §2

Cc1c(C(=O)Nc2nnnn2C)ccc(C(F)(F)F)c1C(=O)N(C)CC(F)F [Example 1-24]
Pre-emergence action against ABUTH (Abutilon theophrasti [1]; 20 g/ha): 100%
Pre-emergence action against ABUTH (Abutilon theophrasti [1]; 80 g/ha): 100%
Pre-emergence action against ALOMY (Alopecurus myosuroides [2]; 80 g/ha): 90%
Pre-emergence action against AMARE (Amaranthus retroflexus [3]; 20 g/ha): 100%
Pre-emergence action against AMARE (Amaranthus retroflexus [3]; 80 g/ha): 100%
Pre-emergence action against AVEFA (Avena fatua [4]; 80 g/ha): 90%
Pre-emergence action against ECHCG (Echinochloa crus-galli [5]; 80 g/ha): 100%
Pre-emergence action against MATIN (Matricaria inodora [6]; 20 g/ha): 90%
Pre-emergence action against MATIN (Matricaria inodora [6]; 80 g/ha): 100%
Pre-emergence action against DIGSA (Digitaria sanguinalis [7]; 20 g/ha): 100%
Pre-emergence action against DIGSA (Digitaria sanguinalis [7]; 80 g/ha): 100%
Pre-emergence action against SETVI (Setaria viridis [8]; 80 g/ha): 100%
Pre-emergence action against VERPE (Veronica persica [9]; 80 g/ha): 100%
Pre-emergence action against VIOTR (Viola tricolor [10]; 20 g/ha): 80%
Pre-emergence action against VIOTR (Viola tricolor [10]; 80 g/ha): 100%
Post-emergence action against ABUTH (Abutilon theophrasti [11]; 20 g/ha): 80%
Post-emergence action against ALOMY (Alopecurus myosuroides [12]; 20 g/ha): 90%
Post-emergence action against AMARE in % (Amaranthus retroflexus [13]; 20 g/ha): 90%
Post-emergence action against AVEFA in % (Avena fatua [14]; 20 g/ha): 80%
Post-emergence action against ECHCG in % (Echinochloa crus-galli [15]; 20 g/ha): 80%
Post-emergence action against MATIN in % (Matricaria inodora [16]; 5 g/ha): 90%
Post-emergence action against MATIN in % (Matricaria inodora [16]; 20 g/ha): 90%
Post-emergence action against DIGSA in % (Digitaria sanguinalis [17]; 5 g/ha): 100%
Post-emergence action against DIGSA in % (Digitaria sanguinalis [17]; 20 g/ha): 100%
Post-emergence action against POLCO in % (Polygonum convolvulus): 100%
Post-emergence action against SETVI in % (Setaria viridis [18]; 20 g/ha): 80%
Post-emergence action against VERPE in % (Veronica persica [19]): 80%
Post-emergence action against VIOTR in % (Viola tricolor [20]; 5 g/ha): 80%
Post-emergence action against VIOTR in % (Viola tricolor [20]; 20 g/ha): 90%

CCCn1nnnc1NC(=O)c1ccc(C(F)(F)F)c(C(=O)N(C)C)c1Cl [Example 3-123]
Pre-emergence action against ABUTH (Abutilon theophrasti [1]; 80 g/ha): 100%
Pre-emergence action against ABUTH (Abutilon theophrasti [1]; Dosage column 320 g/ha (heading prints 3200 g/ha)): 100%
Pre-emergence action against ALOMY (Alopecurus myosuroides [2]; 80 g/ha): 80%
Pre-emergence action against ALOMY (Alopecurus myosuroides [2]; 320 g/ha): 90%
Pre-emergence action against AMARE (Amaranthus retroflexus [3]; 20 g/ha): 100%
Pre-emergence action against AMARE (Amaranthus retroflexus [3]; 80 g/ha): 100%
Pre-emergence action against AMARE (Amaranthus retroflexus [3]; 320 g/ha): 100%
Pre-emergence action against AVEFA (Avena fatua [4]; 80 g/ha): 80%
Pre-emergence action against AVEFA (Avena fatua [4]; 320 g/ha): 100%
Pre-emergence action against CYPES (Cyperus esculentus; 80 g/ha): 80%
Pre-emergence action against CYPES (Cyperus esculentus; 320 g/ha): 90%
Pre-emergence action against ECHCG (Echinochloa crus-galli [5]; 80 g/ha): 80%
Pre-emergence action against ECHCG (Echinochloa crus-galli [5]; 320 g/ha): 100%
Pre-emergence action against MATIN (Matricaria inodora [6]; 20 g/ha): 80%
Pre-emergence action against MATIN (Matricaria inodora [6]; 80 g/ha): 90%
Pre-emergence action against MATIN (Matricaria inodora [6]; 320 g/ha): 100%
Pre-emergence action against PHBPU (Pharbitis purpurea [21]): 90%
Pre-emergence action against HORMU (Hordeum murinum [22]; 80 g/ha): 80%
Pre-emergence action against HORMU (Hordeum murinum [22]; 320 g/ha): 100%
Pre-emergence action against LOLRI (Lolium rigidum): 80%
Pre-emergence action against SETVI (Setaria viridis [8]; 80 g/ha): 100%
Pre-emergence action against SETVI (Setaria viridis [8]; 320 g/ha): 100%
Pre-emergence action against STEME (Stellaria media [23]; 20 g/ha): 90%
Pre-emergence action against STEME (Stellaria media [23]; 80 g/ha): 100%
Pre-emergence action against STEME (Stellaria media [23]; 320 g/ha): 100%
Pre-emergence action against VERPE (Veronica persica [9]; 320 g/ha): 90%
Pre-emergence action against VIOTR (Viola tricolor [10]; 80 g/ha): 80%
Pre-emergence action against VIOTR (Viola tricolor [10]; 320 g/ha): 100%
Post-emergence action against ABUTH (Abutilon theophrasti [11]; 5 g/ha): 100%
Post-emergence action against ABUTH (Abutilon theophrasti [11]; 20 g/ha): 100%
Post-emergence action against ABUTH (Abutilon theophrasti [11]; 80 g/ha): 100%
Post-emergence action against ALOMY (Alopecurus myosuroides [12]; 20 g/ha): 80%
Post-emergence action against ALOMY (Alopecurus myosuroides [12]; 80 g/ha): 100%
Post-emergence action against AMARE in % (Amaranthus retroflexus [13]; 5 g/ha): 100%
Post-emergence action against AMARE in % (Amaranthus retroflexus [13]; 20 g/ha): 100%
Post-emergence action against AMARE in % (Amaranthus retroflexus [13]; 80 g/ha): 100%
Post-emergence action against AVEFA in % (Avena fatua [14]; 5 g/ha): 80%
Post-emergence action against AVEFA in % (Avena fatua [14]; 20 g/ha): 100%
Post-emergence action against AVEFA in % (Avena fatua [14]; 80 g/ha): 100%
Post-emergence action against ECHCG in % (Echinochloa crus-galli [15]; 5 g/ha): 90%
Post-emergence action against ECHCG in % (Echinochloa crus-galli [15]; 20 g/ha): 100%
Post-emergence action against ECHCG in % (Echinochloa crus-galli [15]; 80 g/ha): 100%
Post-emergence action against MATIN in % (Matricaria inodora [16]; 5 g/ha): 90%
Post-emergence action against MATIN in % (Matricaria inodora [16]; 20 g/ha): 100%
Post-emergence action against MATIN in % (Matricaria inodora [16]; 80 g/ha): 100%
Post-emergence action against PHBPU in % (Pharbitis purpurea [24]; 5 g/ha): 80%
Post-emergence action against PHBPU in % (Pharbitis purpurea [24]; 20 g/ha): 90%
Post-emergence action against PHBPU in % (Pharbitis purpurea [24]; 80 g/ha): 90%
Post-emergence action against HORMU in % (Hordeum murinum [25]; 20 g/ha): 90%
Post-emergence action against HORMU in % (Hordeum murinum [25]; 80 g/ha): 100%
Post-emergence action against SETVI in % (Setaria viridis [18]; 5 g/ha): 100%
Post-emergence action against SETVI in % (Setaria viridis [18]; 20 g/ha): 100%
Post-emergence action against SETVI in % (Setaria viridis [18]; 80 g/ha): 100%
Post-emergence action against STEME in % (Stellaria media [26]; 5 g/ha): 90%
Post-emergence action against STEME in % (Stellaria media [26]; 20 g/ha): 100%
Post-emergence action against STEME in % (Stellaria media [26]; 80 g/ha): 100%
Post-emergence action against VIOTR in % (Viola tricolor [20]; 5 g/ha): 90%
Post-emergence action against VIOTR in % (Viola tricolor [20]; 20 g/ha): 100%
Post-emergence action against VIOTR in % (Viola tricolor [20]; 80 g/ha): 100%
